ChEMBL document CHEMBL3865798, “Engineering another class of anti-tubercular lead: Hit to lead optimization of an intriguing class of gyrase ATPase inhibitors” (Eur J Med Chem, 2016)
In brackets after ≈: the same amount, converted by molar mass.

Tests used:
[1] = Growth inhibition of mouse RAW264.7 cells at 100 uM after 48 hrs by MTT assay; type: cell-based; details: read-out: GI
[2] = target: DNA gyrase subunit B (Mycobacterium smegmatis (strain ATCC 700084 / mc(2)155), UniProt A0QNE0)
Description: Inhibition of Mycobacterium smegmatis 155 6His-tagged DNA gyrase B catalytic domain ATPase activity expressed in Escherichia coli BL21 (DE3) pLysS cells assessed as inorganic phosphate release after 120 mins in presence of ATP by malachite green dye based assay

[3] = system: Mycobacterium tuberculosis; assay: microbe, parasite or virus in culture; details: H37Rv, 168 h
Description: Antimycobacterial activity against Mycobacterium tuberculosis H37Rv after 7 days by microplate alamar blue assay

[4] = Protein binding in rat plasma at 2500 ng/ml by HPLC analysis; type: ADME, cell-free; details: read-out: PPB (converted)
[5] = Time at which plasma concentration stays above in vitro Mycobacterium DNA gyrase IC50 in Wistar rat at 20 mg/kg, po; type: ADME, organism-based; details: in vivo
[6] = Protein binding in human plasma by HPLC analysis; type: ADME, cell-free
[7] = AUC (0 to t) in Wistar rat at 1 mg/kg, iv administered as single dose; type: ADME, organism-based; details: in vivo
[8] = Protein binding in human plasma at 2500 ng/ml by HPLC analysis; type: ADME, cell-free; details: read-out: PPB (converted)
[9] = Oral bioavailability in Wistar rat at 20 mg/kg administered as single dose; type: ADME, organism-based; details: in vivo
[10] = AUC (0 to t) in Wistar rat at 20 mg/kg, po administered as single dose; type: ADME, organism-based; details: in vivo
[11] = Protein binding in rat plasma by HPLC analysis; type: ADME, cell-free
[12] = Protein binding in rat plasma at 100 ng/ml by HPLC analysis; type: ADME, cell-free; details: read-out: PPB (converted)
[13] = Protein binding in human plasma at 100 ng/ml by HPLC analysis; type: ADME, cell-free; details: read-out: PPB (converted)
[14] = Tmax in Wistar rat at 20 mg/kg, po administered as single dose; type: ADME, organism-based; details: in vivo
[15] = Protein binding in human plasma at 5000 ng/ml by HPLC analysis; type: ADME, cell-free; details: read-out: PPB (converted)
[16] = target: DNA gyrase subunit B (Mycobacterium smegmatis (strain ATCC 700084 / mc(2)155)) (UniProt A0QNE0); assay: Binding affinity to Mycobacterium smegmatis 155 6His-tagged DNA gyrase B catalytic domain expressed in Escherichia coli BL21 (DE3) pLysS cells assessed as change in melting temperature by SYPRO orange dye based differential scanning fluorimetric analysis; details: Mycolicibacterium smegmatis MC2 155
[17] = Cmax in Wistar rat at 20 mg/kg, po administered as single dose; type: ADME, organism-based; set-up: dose 20 mg/kg, route oral; details: in vivo
[18] = AUC (0 to infinity) in Wistar rat at 1 mg/kg, iv administered as single dose; type: ADME, organism-based; set-up: dose 1 mg/kg, route intravenous, time infinity; details: in vivo
[19] = Protein binding in rat plasma at 5000 ng/ml by HPLC analysis; type: ADME, cell-free; details: read-out: PPB (converted)
[20] = Volume of distribution in Wistar rat at 1 mg/kg, iv administered as single dose; type: ADME, organism-based; details: in vivo
[21] = Total clearance in Wistar rat at 1 mg/kg, iv administered as single dose; type: ADME, organism-based; details: in vivo
[22] = AUC (0 to infinity) in Wistar rat at 20 mg/kg, po administered as single dose; type: ADME, organism-based; set-up: dose 20 mg/kg, time infinity, route oral; details: in vivo
[23] = Apparent elimination half life in Wistar rat at 1 mg/kg, iv administered as single dose; type: ADME, organism-based; details: in vivo, read-out: betat1/2(app) (converted)

Sequence of DNA gyrase subunit B (Mycobacterium smegmatis (strain ATCC 700084 / mc(2)155), UniProt A0QNE0) (A0QNE0 whole entry): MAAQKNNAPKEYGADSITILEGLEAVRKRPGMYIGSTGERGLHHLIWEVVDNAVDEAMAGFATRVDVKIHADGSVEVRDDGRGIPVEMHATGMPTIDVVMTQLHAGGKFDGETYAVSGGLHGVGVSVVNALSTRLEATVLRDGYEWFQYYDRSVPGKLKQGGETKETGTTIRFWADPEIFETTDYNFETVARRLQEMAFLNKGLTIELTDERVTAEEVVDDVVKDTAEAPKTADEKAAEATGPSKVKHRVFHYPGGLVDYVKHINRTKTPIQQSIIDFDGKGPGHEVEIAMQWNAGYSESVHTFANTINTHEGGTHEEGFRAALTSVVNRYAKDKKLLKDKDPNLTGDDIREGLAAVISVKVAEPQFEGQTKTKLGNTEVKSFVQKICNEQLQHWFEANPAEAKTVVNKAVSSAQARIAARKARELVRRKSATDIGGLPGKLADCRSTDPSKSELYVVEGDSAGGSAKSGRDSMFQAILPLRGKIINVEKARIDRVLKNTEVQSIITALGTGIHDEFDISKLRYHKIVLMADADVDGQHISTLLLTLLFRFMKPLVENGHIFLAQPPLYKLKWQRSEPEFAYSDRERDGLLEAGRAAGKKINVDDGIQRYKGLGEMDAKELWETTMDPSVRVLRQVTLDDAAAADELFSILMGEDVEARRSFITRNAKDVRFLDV
Sequence of DNA gyrase subunit B (Mycobacterium smegmatis (strain ATCC 700084 / mc(2)155)) (A0QNE0 2-675 limits assumed): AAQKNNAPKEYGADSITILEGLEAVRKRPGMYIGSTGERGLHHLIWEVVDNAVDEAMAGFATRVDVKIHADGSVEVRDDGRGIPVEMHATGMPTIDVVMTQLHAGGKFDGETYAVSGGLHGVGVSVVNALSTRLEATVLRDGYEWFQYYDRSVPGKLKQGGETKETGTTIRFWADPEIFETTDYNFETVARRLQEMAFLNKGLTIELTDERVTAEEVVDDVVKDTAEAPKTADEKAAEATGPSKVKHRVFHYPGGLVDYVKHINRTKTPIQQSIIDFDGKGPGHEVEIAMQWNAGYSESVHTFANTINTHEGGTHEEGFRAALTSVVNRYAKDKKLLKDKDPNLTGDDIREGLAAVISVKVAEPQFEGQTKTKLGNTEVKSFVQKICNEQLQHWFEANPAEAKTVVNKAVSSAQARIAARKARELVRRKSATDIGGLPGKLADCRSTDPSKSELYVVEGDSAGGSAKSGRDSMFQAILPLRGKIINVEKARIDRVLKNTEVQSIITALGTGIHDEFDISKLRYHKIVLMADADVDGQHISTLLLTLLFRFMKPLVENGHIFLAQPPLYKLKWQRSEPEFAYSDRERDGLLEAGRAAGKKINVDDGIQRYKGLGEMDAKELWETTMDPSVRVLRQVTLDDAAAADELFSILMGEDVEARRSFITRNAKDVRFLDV

SMILES	inhibition at 48 h, 100 µM [1]	IC50 [2]	MIC [3]	other results
COc1ccc2[nH]c(C(=O)N3CCN(c4ccnc5cc(Cl)ccc45)CC3)cc2c1	16.4%	24.3 µM	29.7 µM (≈ 12.5 µg/mL)	–
O=C(CN1CCN(c2ccnc3cc(Cl)ccc23)CC1)Nc1ncc([N+](=O)[O-])s1	11.3%	14.6 µM	31.2 µM (≈ 13.5 µg/mL)	–
S=C(Nc1ccccc1)N1CCN(c2ccnc3cc(Cl)ccc23)CC1	16.5%	4.12 µM	16.3 µM (≈ 6.25 µg/mL)	–
CC1COc2c(N3CCN(C)CC3)c(F)cc3c(=O)c(C(=O)O)cn1c23 (stereo not drawn) [OFLOXACIN]	–	–	2.16 µM (≈ 0.781 µg/mL)	–
CC(C)NC(=O)N1CCN(c2ccnc3cc(Cl)ccc23)CC1	34.4%	43.9 µM	155 µM (≈ 51.6 µg/mL)	–
O=C(c1ccccn1)N1CCN(c2ccnc3cc(Cl)ccc23)CC1	23.6%	11 µM	35.4 µM (≈ 12.5 µg/mL)	–
O=C(CN1CCN(c2ccnc3cc(C(F)(F)F)ccc23)CC1)NCc1ccccn1	51.2%	> 75 µM	116 µM (≈ 50 µg/mL)	–
CCNC(=S)N1CCN(c2ccnc3cc(Cl)ccc23)CC1	21.9%	40.6 µM	74.6 µM (≈ 25 µg/mL)	–
O=C(CN1CCN(c2ccnc3cc(Cl)ccc23)CC1)Nc1ccccc1	26.2%	33.1 µM	35.5 µM (≈ 13.5 µg/mL)	–
CC(=O)c1ccc(NC(=O)CN2CCN(c3ccnc4cc(Cl)ccc34)CC2)cc1	29.5%	7.6 µM	14.5 µM (≈ 6.13 µg/mL)	–
O=C(CN1CCN(c2ccnc3ccccc23)CC1)NCc1ccccn1	23.5%	> 75 µM	138 µM (≈ 50 µg/mL)	–
O=C(Nc1ccc(Cl)cc1)N1CCN(c2ccnc3cc(Cl)ccc23)CC1	26.2%	9.9 µM	31.5 µM (≈ 12.6 µg/mL)	–
O=C(c1ccc[nH]1)N1CCN(c2ccnc3cc(Cl)ccc23)CC1	34.2%	14.2 µM	18.3 µM (≈ 6.25 µg/mL)	–
O=C(CN1CCN(c2ccnc3cc(Cl)ccc23)CC1)NCc1cccs1	33.4%	14.8 µM	31.2 µM (≈ 12.5 µg/mL)	–
S=C(NCc1ccccc1)N1CCN(c2ccnc3cc(Cl)ccc23)CC1	19.8%	5.5 µM	15.8 µM (≈ 6.25 µg/mL)	–
O=C(Nc1ccc([N+](=O)[O-])cc1)N1CCN(c2ccnc3cc(Cl)ccc23)CC1	41.8 to 42%	9.2 µM	30.4 µM (≈ 12.5 µg/mL)	–
O=C(c1cc2ccccc2[nH]1)N1CCN(c2ccnc3cc(Cl)ccc23)CC1	34.6%	8.53 µM	16 µM (≈ 6.25 µg/mL)	–
Clc1ccc2c(N3CCN(Cc4nc5ccccc5[nH]4)CC3)ccnc2c1	34.8%	32.6 µM	27.3 µM (≈ 10.3 µg/mL)	–
O=C(CN1CCN(c2ccnc3cc(Cl)ccc23)CC1)NCc1ccccn1	36.4%	12.2 µM	31.6 µM (≈ 12.5 µg/mL)	–
NNC(=O)c1ccncc1 [ISONIAZID]	–	–	0.66 µM (≈ 0.0905 µg/mL)	–
S=C(Nc1ccc(Cl)cc1)N1CCN(c2ccnc3cc(Cl)ccc23)CC1	34.2%	10.7 µM	30 µM (≈ 12.5 µg/mL)	–
Cc1ccc(NC(=S)N2CCN(c3ccnc4cc(Cl)ccc34)CC2)cc1	15.8%	13.8 µM	63 µM (≈ 25 µg/mL)	–
CC(C)NC(=S)N1CCN(c2ccnc3cc(Cl)ccc23)CC1	36.3%	40.4 µM	71.6 µM (≈ 25 µg/mL)	–
O=C(Nc1ccc(F)cc1)N1CCN(c2ccnc3cc(Cl)ccc23)CC1	17.6%	3.1 µM	15.3 µM (≈ 5.88 µg/mL)	–

SMILES	inhibition at 48 h, 100 µM [1]	IC50 [2]	MIC [3]	other results
COc1ccc(NC(=O)N2CCN(c3ccnc4cc(Cl)ccc34)CC2)cc1	25.3%	21.1 µM	31.5 µM (≈ 12.5 µg/mL)	–
Clc1ccc2c(N3CCN(Cc4ccc[nH]4)CC3)ccnc2c1	12.6%	16.9 µM	76.5 µM (≈ 25 µg/mL)	–
O=C(CN1CCN(c2ccnc3cc(Cl)ccc23)CC1)Nc1nc2ccc([N+](=O)[O-])cc2s1	23.6%	16.1 µM	25.8 µM (≈ 12.5 µg/mL)	–
O=C(NCc1ccccc1)N1CCN(c2ccnc3cc(Cl)ccc23)CC1	25.2%	6.1 µM	17.7 µM (≈ 6.73 µg/mL)	–
CO[C@H]1/C=C/O[C@@]2(C)Oc3c(C)c(O)c4c(O)c(c(/C=N/N5CCN(C)CC5)c(O)c4c3C2=O)NC(=O)/C(C)=C\C=C\[C@H](C)[C@H](O)[C@@H](C)[C@@H](O)[C@@H](C)[C@H](OC(C)=O)[C@@H]1C [RIFAMPIN]	–	–	0.23 µM (≈ 0.189 µg/mL)	–
CC(=O)c1ccc(NC(=O)N2CCN(c3ccnc4cc(Cl)ccc34)CC2)cc1	26.2%	18.8 µM	30.6 µM (≈ 12.5 µg/mL)	–
Cc1ccc(NC(=O)N2CCN(c3ccnc4cc(Cl)ccc34)CC2)cc1	33.9%	16 µM	32.8 µM (≈ 12.5 µg/mL)	–
O=[N+]([O-])c1cnc(N2CCN(c3ccnc4cc(Cl)ccc34)CC2)s1	35.1%	9.6 µM	33.2 µM (≈ 12.5 µg/mL)	–
COc1ccc2c(N3CCN(CC(=O)NCc4ccccn4)CC3)ccnc2c1	33.5%	51.6 µM	63.9 µM (≈ 25 µg/mL)	–
O=C(c1cc2cc(Cl)ccc2[nH]1)N1CCN(c2ccnc3cc(Cl)ccc23)CC1	29.8%	10.3 µM	14.7 µM (≈ 6.25 µg/mL)	–
O=C(c1cc2cc(F)ccc2[nH]1)N1CCN(c2ccnc3cc(Cl)ccc23)CC1	23.3%	13.6 µM	15.3 µM (≈ 6.25 µg/mL)	–
O=C(CN1CCN(c2ccnc3cc(Cl)ccc23)CC1)NCc1ccco1	21.1%	16.2 µM	32.5 µM (≈ 12.5 µg/mL)	–
O=[N+]([O-])c1ccc(N2CCN(c3ccnc4cc(Cl)ccc34)CC2)c2nonc12	37.2%	10.3 µM	7.26 µM (≈ 2.98 µg/mL)	–
O=C(Nc1ccccc1)N1CCN(c2ccnc3cc(Cl)ccc23)CC1	30.9%	7.6 µM	17 µM (≈ 6.25 µg/mL)	–
O=C(CN1CCN(c2ccnc3cc(Cl)ccc23)CC1)Nc1ccccn1	25.4%	9.1 µM	17.7 µM (≈ 6.76 µg/mL)	–
Fc1ccc(NC(=S)N2CCN(c3ccnc4cc(Cl)ccc34)CC2)cc1	23.9%	2.5 µM	7.8 µM (≈ 3.13 µg/mL)	fraction unbound at 2500 ng/ml [4]: 0.052; Time [5]: > 6 h; PPB [6]: Dose-dependent effect; AUC(0-t) [7]: 1240 ng·h/mL; fraction unbound at 2500 ng/ml [8]: 0.064; bioavailability [9]: 71.2%; AUC(0-t) [10]: 18800 ng·h/mL; PPB [11]: Dose-dependent effect; fraction unbound at 100 ng/ml [12]: 0.065; fraction unbound at 100 ng/ml [13]: 0.078; Tmax [14]: 2.2 h; fraction unbound at 5000 ng/ml [15]: 0.057; ΔTm [16]: 4.1 °C; Cmax [17]: 2910 ng/mL; AUC(0-inf) [18]: 1350 ng·h/mL; fraction unbound at 5000 ng/ml [19]: 0.046; Vd [20]: 0.99 L/kg; clearance [21]: 13.3 mL/min/kg; AUC(0-inf) [22]: 19300 ng·h/mL; half-life [23]: 2.04 h
O=C(CN1CCN(c2ccnc3cc(Cl)ccc23)CC1)NCCc1ccccn1	26.3%	30.4 µM	61 µM (≈ 25 µg/mL)	–
COc1ccc(NC(=S)N2CCN(c3ccnc4cc(Cl)ccc34)CC2)cc1	23.1%	11 µM	30.3 µM (≈ 12.5 µg/mL)	–
O=C(CN1CCN(c2ccnc3cc(Cl)ccc23)CC1)NCc1ccccc1	15.3%	23.8 µM	63.3 µM (≈ 25 µg/mL)	–
O=C(CN1CCN(c2ccnc3cc(Cl)ccc23)CC1)Nc1cc(C(F)(F)F)ccc1Cl	24.7%	31.3 µM	24.2 µM (≈ 11.7 µg/mL)	–
CC(=O)c1ccc(NC(=S)N2CCN(c3ccnc4cc(Cl)ccc34)CC2)cc1	27.2%	27 µM	58.8 µM (≈ 25 µg/mL)	–
CCNC(=O)N1CCN(c2ccnc3cc(Cl)ccc23)CC1	27%	45.3 µM	157 µM (≈ 50 µg/mL)	–
Clc1ccc2c(N3CCN(Cc4c[nH]c5ccccc45)CC3)ccnc2c1	22.2%	8.3 µM	16.2 µM (≈ 6.12 µg/mL)	–
O=[N+]([O-])c1ccc(NC(=S)N2CCN(c3ccnc4cc(Cl)ccc34)CC2)cc1	39.9%	6.8 µM	14.3 µM (≈ 6.13 µg/mL)	–
